# Values quoted from earlier work as cited in US20090318377A1, “MEDICAGENIC ACID SAPONIN AND USES THEREOF” (MEDICAGO INC., priority 2006, published 2009).
# Tested on: Syrian Golden hamster
# Settings: average daily dose 128 mg/kg for 4 weeks
substance,measurement,value
soyasaponin B,reduction in high-density lipoprotein (HDL),33%
same,reduction in plasma cholesterol,20%
same,reduction in triglycerides,18%
